Data from patent publication US20120237552A1, “Peptoid Agonists of Nerve Growth Factor and Their Use as Medicaments” (priority 2009, published 2012).

Tests used:
PC12 cells = test: PC12 cell differentiation (neurite outgrowth); assay type: cell-based, rat; settings: 3 days, peptoids 2 ng/ml to 50 μg/ml, reduced serum (0.5% FBS and 1% HS); compared with NGF 100 ng/ml
Description: PC 12 cell differentiation was measured by plating cells onto collagen-coated 24-wells plates. NGF (100 ng/ml) or the small chemicals at different concentrations were added and the percentage of cells with neurite processes greater than two cell bodies in length were counted after relevant treatment. For each experiment at least 300 cells were randomly measured (Burstein and Greene, 1978).
PC12 cells were maintained at 37° C. in DMEM supplemented with 2.5% FBS, 15% of Horse serum (HS) and penicillin/streptomycin in a humidified 5% CO2 incubator. The cells were grown on 60- and 100-mm tissue culture dishes (Becton Dickinson).
PC 12 cells were cultured for 3 days in the presence of the peptoids (from 2 ng/ml to 50 μg/ml) under reduced serum conditions (0.5% FBS and 1% HS).

C57BL/6 EAE mice = test: Histological evaluation of brain and spinal cord in EAE mice; assay type: in vivo; settings: 100 mg/kg
Description: Histological evaluation was done on paraformaldehyde-fixed, paraffin-embedded sections of brain and spinal cord. Sections 10 μm thick) were stained with hematoxylin and Luxol Fast Blue to assess inflammation and demyelination. Semiquantitative histological evaluation for inflammation and demyelination was conducted and scored blindly using the following scale: 0=normal; 1=1 to 3/section perivascular cuffs with minimal demyelination; 2=3 to 10 perivascular cuffs/section accompanied by moderate demyelination; 3=wide-spread perivascular cuffing, extensive demyelination with large confluent lesions (Villoslada et al., 2001).
Immunohistochemical procedures were performed on 10 μm paraffin-embedded sections of brain and spinal cord as described previously (Villoslada et al., 2001). Primary antibodies were added at concentrations of 1/1000 for MCA500 (rat anti-mouse CD3 from Serotec) and 1/500 for MCA1107 (rat anti-mouse CD4 from Serotec). Specificity of the immunoreaction was determined by incubating sections without the primary antibodies or using the corresponding isotype controls which yielded no immunoreactivity.

[1] = test system: TNFα, IL2, iNOS gene expression; test: Cytokine and iNOS gene expression in spleen of EAE mice (quantitative RT-PCR); assay type: in vivo; settings: end of the experiment, treated vs placebo
Description: Brains and spinal cords from mice obtained at the time of death were homogenized in RNA lysis buffer. Total RNA was extracted using the RNeasy Mini Kit (Qiagen, Chatwworth, Calif.) isolation system, including DNase treatment using the RNase-Free DNase Set (Quiagen). Total RNA (35 μg) was reverse transcribed using the Reverse Transcription System (High Capacity cDNA Archive Kit; Applied Biosystems, Foster City, Calif.). The real time reaction was conducted at 25° C. for 10 minutes, followed by 37° C. for 2 hours, and finally stored at 4° C. Primers and target-specific fluorescence-labeled TaqMan probes were purchased from Applied Biosystems (TaqMan Gene Expression assays). We used the TaqMan Universal Master Mix (Applied biosystems). Amplification of complementary DNA was performed on a DNA Engine Opticon 2 Real-Time System (MJ Research, Watertown, Mass.) using 0.9 μM for each primer and 0.25 μM for the probe and 20 ng complementary DNA. The reaction conditions were an initial 2 minutes at 50° C., followed by 10 minutes at 95° C. and 40 cycles of 15 seconds at 95° C. and 1 minute at 60° C. Each sample was run in triplicate, and in each plate the target and the endogenous control were amplified in different wells. The expression of the gene tested was quantified relative to the level of the housekeeping gene 18rRNA (Palacios et al., 2008).
To assess which was the effect of this compound in the peripheral immune response, the proliferative response against the immunizing antigen (MOG) in splenocytes of naïve animals and the cytokine profile in spleen cells from placebo and treated animals were evaluated. […] Gene expression of interleukin2 (IL2), Interferon γ (IFNγ), tumor necrosis factor α (TNFα), inducible nitric oxide synthase (iNOS) and interleukin 10 (IL10) was investigated by quantitative reverse transcriptase PCR at the end of the experiment in splenocytes from placebo and treated animals.

RN22 cells = test: RN22 cell survival under CuSO4 stress (MTT); assay type: cell-based, rat; settings: CuSO4 150 μM, 24 h, peptoids 1 ng/ml-10 μg/ml; compared with NGF 100 ng/ml
Description: The library was also tested to assess their capacity to promote cell survival of myelin producing cells. To delineate p75 signalling independent of TrkA, we used a rat schwannoma cell line (RN22) expressing p75, but not TrkA, (Gentry et al., 2000).
The rat schawnnoma cell line RN22 was cultured in 5% CO2 at 37° C. in Dulbecco's modified Eagle's medium (DMEM) with 10% fetal bovine serum (FBS) and penicillin/streptomycin.
RN22 cells were plated at 20,000 cells/well on a 24-well plate in DMEM alone and after allowing the cells to adhere for 3 days, cupper sulphate (CuSO4) (150 μM) was added with or without NGF (100 ng/ml) or the peptoids N35-4-8C, N6-4-17C and N35-4-17C at different concentrations (1 ng/ml-10 μg/ml) to generate stress and cell death. After 24 h cell viability was studied by determining the amount of yellow MTT (Sigma) that was reduced to insoluble purple formazan. After removing the medium, the water-insoluble formazan was solubilised with DMSO (Sigma), and the dissolved material was measured spectrophotometrically at a wavelength of 570 nm, subtracting the background at 650 nm (Frade, 2005).

CC(C)CCN(CC(=O)N(CCCN1CCCC1=O)CC(N)=O)C(=O)CNCCc1ccccc1F [N35-4-8C, [N-(2-(2′-Fluorophenyl)ethyl)glycyl]-[N-(3-methylbutyl)glycyl]-N-[3-(2′-oxopyrrolidinyl)propyl]glycinamide]
differentiation of PC12 cells (PC12 cells): induce the differentiation of PC12 cells at different concentrations to an extent substantially comparable with that induce by NGF
histological scores at the brain and spinal cord level (C57BL/6 EAE mice; day 26, vs placebo, p<0.05): significant lower histological scores
demyelination areas (Luxol fast blue) (C57BL/6 EAE mice; spinal cord, vs placebo): decreased
inflammatory infiltrates in the brain and the spinal cord (C57BL/6 EAE mice; vs placebo, p<0.05): less inflammatory infiltrates
gene expression of IL2 in spleen [1]: significant decrease
gene expression of TNFα in spleen [1]: significant decrease
gene expression of iNOS in spleen [1]: significant decrease
survival of RN22 cells (cell viability, MTT) (RN22 cells): promote survival of RN22 cells
